Assay results: paper PMC10096344 (Molecules, 2023)

Columns and labels:
[1] = system: S. typhimurium strains TA97, TA98, TA100 and TA102; experiment: Bacterial reverse mutation assay (Ames assay), all strains; assay type: cell-based, Salmonell typhimurium
Protocol: (§1) A sample of 2-aminofluorene (10 μg/plate) was used for TA97, TA98, TA100 +S9 test strains, while 1,8-dihydroxyanthraquinone (60 μg/plate) was used for the TA102 +S9 test strain. The histidine was added with the same amount. The plates were incubated for 48 h at 37 °C; the number of colonies was then counted per plate.

[2] = system: P. aeruginosa (ATCC27853); experiment: Transcriptome assay (RNA-seq); assay type: cell-based, Pseudomonas aeruginosa; settings: LP4C 10 μg/mL vs Vehicle Treatment Group
Protocol: The RNA sequencing was performed using Illumina HiSeq4000 according to the operation instructions (Illumina, CA, USA). Differential gene expression analysis of LP4C treatment and control groups was conducted; KEGG signaling pathway analysis was performed to map the connection of multiple genes.

[3] = system: P. aeruginosa (ATCC27853); experiment: Anti-bacterial activity, inhibition zone diameter on agar; assay type: cell-based, Pseudomonas aeruginosa; settings: LP4C 5, 10, 50, 100, 200 μg/mL
Protocol: P. aeruginosa (ATCC27853) was cultured in 3 mL LB culture medium, shaken at 220 rpm for 12 h at 37 °C and diluted to 1 × 10^6 CFU/mL. The culture disk was coated with 1% agar, and 100 μL bacterial suspension was added to the agar in the disk evenly. […] LP4C or reference antibiotics were then added in each hole. The disk was cultured for 12–16 h at 37 °C; the result was then observed and the inhibition zone diameter was measured.

[4] = Pharmacokinetics measurement; assay type: in vivo; settings: SD rats; for plasma half-life: single dose
[5] = system: P. aeruginosa (ATCC27853) biofilm; experiment: Bacterial biofilm formation (FITC staining, crystal violet staining); assay type: cell-based, Pseudomonas aeruginosa
Protocol: The bacterial biofilm growth and measurement was performed according to our previously reported method. Briefly, P. aeruginosa (ATCC27853) was cultured in the tube with nutrient broth containing 2% (w/v) glucose, shaken at 220 rpm for 12 h at 37 °C. The suspension was diluted to 1 × 10^6 CFU/mL and added to 96-well plates, the bacteria was cultured for 24 h at 37 °C for biofilm growth and the planktonic bacterial of each well was removed by PBS rinsing three times. To observe the biofilm formation, the fluorescein isothiocyanate (FITC) was added into the plates and incubated for 2 h at 37 °C; the labeled biofilm was then washed by PBS and visualized under the fluorescence microscopy (Olympus CKX53, Tokyo, Japan). The measurement of biofilm was performed according to the following procedure: the mature biofilm was fixed with 150 μL methanol and left to air dry, then stained with 150 μL of 1% (w/v) crystal violet solution for 15 min at room temperature. The plate was rinsed with PBS three times and 150 μL of glacial acetic acid was added to each well; the optical density was measured at 630 nm optical density using a microplate reader (Bio-Tek ELX800, Berten, USA).

[6] = system: S. typhimurium TA97; experiment: Bacterial reverse mutation assay (Ames assay); assay type: cell-based, Salmonell typhimurium; settings: n = 3
Protocol: as §1

[7] = system: S. typhimurium TA98; experiment: Bacterial reverse mutation assay (Ames assay); assay type: cell-based, Salmonell typhimurium; settings: n = 3
Protocol: as §1

[8] = system: S. typhimurium TA100; experiment: Bacterial reverse mutation assay (Ames assay); assay type: cell-based, Salmonell typhimurium; settings: n = 3
Protocol: as §1

[9] = system: pyr genes (pyrA, pyrB, pyrC, pyrD, pyrE and pyrF); experiment: RT-PCR (qPCR) of pyr genes; assay type: cell-based, Pseudomonas aeruginosa; settings: LP4C 10 μg/mL vs control
Protocol: The total RNA was isolated from P. aeruginosa cultures, and qPCR amplification was performed according to the instrument of the quantitative PCR system (Stratagene Mx3005P, Agilent, USA); the thermal cycler was then initiated by denaturation procedure for 2 min at 93 °C followed by 40 cycles of 1 min at 93 °C and 2 min at 55 °C. The gene-specific PCR primers were listed in Supplementary Table S3. The relative expression of genes was analyzed by the 2^−ΔΔCt method with normalization to gyrB level.

[10] = system: C57BL/6 mice; assay type: in vivo
Protocol: All animals were closely observed every day for three weeks. The body weight and toxic effects were monitored and the survival rate was calculated. At the end of experiment, the survival mice were euthanized; vital organs, including heart, liver, lung, kidney and spleen, were then excised, weighed and preserved for histopathological observation.

[11] = system: CCC-HHM-2 (human embryonic myocardial tissue cell); experiment: Cytotoxicity test, CCK-8; assay type: cell-based
Protocol: (§2) Optical density was calculated by the microplate reader (BioTek flx800, Berten, USA).

[12] = system: HUVEC (human umbilical vein endothelial cell); experiment: Cytotoxicity test, CCK-8; assay type: cell-based
Protocol: as §2

[13] = 200 μg/mL vs anti-biofilm concentration of LP4C
[14] = LP4C under 200 μg/mL, 24 h, vs vehicle

N#CC1=C(N)Oc2c(c(=O)oc3ccccc23)C1c1cc(C(F)(F)F)cc(C(F)(F)F)c1 (centres unmarked) [LP4C]
number of bacterial revertant colonies vs DMSO negative control ([1]; LP4C 50 μg/plate to 5000 μg/plate): did not increase | mutagenic potential ([1]; LP4C 50 to 5000 μg/plate, ±S9): no obvious mutagenic potential | most enriched pathway of DEGs (transcriptome) [2]: the DEGs number of pyrimidine metabolism was the most enriched | growth inhibition / bactericidal activity (inhibition zone) [3]: no bactericidal activity | time during which blood concentration increased after administration ([4]; intragastric 10 mg/kg): ≤ 4 h | bioavailability ([4]; intragastric 10 mg/kg vs intravenous 5 mg/kg): 46.35% | plasma half-life ([4]; intragastric 10 mg/kg): 11 ± 1.26 h | time during which serum concentration declined rapidly ([4]; intravenous 5 mg/kg): 10 to 60 min | plasma half-life ([4]; intravenous 5 mg/kg): 14 ± 3.05 h | biofilm formation, crystal violet staining ([5]; LP4C 5 μg/mL to 200 μg/mL): could inhibit the biofilm formation in a dose-dependent manner | formation of biofilm, FITC staining ([5]; LP4C 5-200 μg/mL vs Vehicle Treatment Group): suppressed the formation of biofilm in a dose-dependent manner | concentration at which biofilm formation was still inhibited ([5]; inhibited even at this concentration): 5 µg/mL | number of bacterial revertant colonies ([6]; LP4C 50 μg/plate, TA97, +S9, mean ± SD): 142 ± 7.13 | number of bacterial revertant colonies ([6]; LP4C 50 μg/plate, TA97, −S9, mean ± SD): 123 ± 5.92 | number of bacterial revertant colonies ([6]; LP4C 200 μg/plate, TA97, +S9, mean ± SD): 140 ± 8.55 | number of bacterial revertant colonies ([6]; LP4C 200 μg/plate, TA97, −S9, mean ± SD): 122 ± 7.42 | number of bacterial revertant colonies ([6]; LP4C 1000 μg/plate, TA97, +S9, mean ± SD): 142 ± 5.96 | number of bacterial revertant colonies ([6]; LP4C 1000 μg/plate, TA97, −S9, mean ± SD): 119 ± 8.52 | number of bacterial revertant colonies ([6]; LP4C 2000 μg/plate, TA97, +S9, mean ± SD): 140 ± 6.47 | number of bacterial revertant colonies ([6]; LP4C 2000 μg/plate, TA97, −S9, mean ± SD): 120 ± 8.53 | number of bacterial revertant colonies ([6]; LP4C 5000 μg/plate, TA97, +S9, mean ± SD): 141 ± 7.65 | number of bacterial revertant colonies ([6]; LP4C 5000 μg/plate, TA97, −S9, mean ± SD): 112 ± 9.83 | number of bacterial revertant colonies ([7]; LP4C 50 μg/plate, TA98, +S9, mean ± SD): 32 ± 3.6 | number of bacterial revertant colonies ([7]; LP4C 50 μg/plate, TA98, −S9, mean ± SD): 26 ± 2.2 | number of bacterial revertant colonies ([7]; LP4C 200 μg/plate, TA98, +S9, mean ± SD): 33 ± 4.1 | number of bacterial revertant colonies ([7]; LP4C 200 μg/plate, TA98, −S9, mean ± SD): 26 ± 4.8 | number of bacterial revertant colonies ([7]; LP4C 1000 μg/plate, TA98, +S9, mean ± SD): 32 ± 4.7 | number of bacterial revertant colonies ([7]; LP4C 1000 μg/plate, TA98, −S9, mean ± SD): 25 ± 5.4 | number of bacterial revertant colonies ([7]; LP4C 2000 μg/plate, TA98, +S9, mean ± SD): 32 ± 5.8 | number of bacterial revertant colonies ([7]; LP4C 2000 μg/plate, TA98, −S9, mean ± SD): 26 ± 6.7 | number of bacterial revertant colonies ([7]; LP4C 5000 μg/plate, TA98, +S9, mean ± SD): 31 ± 5.2 | number of bacterial revertant colonies ([7]; LP4C 5000 μg/plate, TA98, −S9, mean ± SD): 24 ± 3.5 | number of bacterial revertant colonies ([8]; LP4C 50 μg/plate, TA100, +S9, mean ± SD): 130 ± 7.68 | number of bacterial revertant colonies ([8]; LP4C 50 μg/plate, TA100, −S9, mean ± SD): 117 ± 5.96 | number of bacterial revertant colonies ([8]; LP4C 200 μg/plate, TA100, +S9, mean ± SD): 133 ± 7.34 | number of bacterial revertant colonies ([8]; LP4C 200 μg/plate, TA100, −S9, mean ± SD): 116 ± 6.42 | number of bacterial revertant colonies ([8]; LP4C 1000 μg/plate, TA100, +S9, mean ± SD): 131 ± 6.75 | number of bacterial revertant colonies ([8]; LP4C 1000 μg/plate, TA100, −S9, mean ± SD): 120 ± 8.33 | number of bacterial revertant colonies ([8]; LP4C 2000 μg/plate, TA100, +S9, mean ± SD): 132 ± 6.95 | number of bacterial revertant colonies ([8]; LP4C 2000 μg/plate, TA100, −S9, mean ± SD): 120 ± 5.71 | number of bacterial revertant colonies ([8]; LP4C 5000 μg/plate, TA100, +S9, mean ± SD): 130 ± 5.69 | number of bacterial revertant colonies ([8]; LP4C 5000 μg/plate, TA100, −S9, mean ± SD): 122 ± 7.67 | expression of pyr genes [9]: could inhibit the expression of pyr genes significantly | survival rate vs Control ([10]; 20 mg/kg to 320 mg/kg intragastric, three weeks): not a significant difference in the survival rate | death and toxicity signs ([10]; 20, 40 and 80 mg/kg intragastric, three-week period): no death and obvious toxicity sign was observed | histopathological changes (H&E) of heart, liver, lung, kidney and spleen ([10]; intragastric, vs control groups): no obvious pathological change was observed, except the slight hemorrhagic phenomena that occurred in the liver section in the 320 mg/kg LP4C Treatment Group | non-toxic concentration relative to anti-biofilm concentration [11, 13]: at least 40 times | cell viability (CCK-8) [11, 14]: the cell viability was not affected | non-toxic concentration relative to anti-biofilm concentration [12, 13]: at least 40 times | cell viability (CCK-8) [12, 14]: the cell viability was not affected
